Publication PMC3914206

Columns and labels:
Assay in all cases: KiNativ chemical proteomics profiling in HeLa and PC3 cell lysates
Format in all cases: binding
[1] = molecular target: T1, selected panels of kinases in HeLa and PC3 cell lysates (Homo sapiens, UniProt O00418); conditions: 10 uM, peptide YIkYNSNSGFVR, labeling site Protein Kinase Domain
T1 construct: endogenous in cells; host or cells: HeLa and PC3 cell lysates

[2] = molecular target: T2, selected panels of kinases in HeLa and PC3 cell lysates (Homo sapiens, UniProt O14757); conditions: 10 uM; proteome HEL; peptide DIkPENLLLDER; labeling site Lys2
T2 construct: endogenous in cells; host or cells: HeLa and PC3 cell lysates

[3] = molecular target: T3, selected panels of kinases in HeLa and PC3 cell lysates (Homo sapiens, UniProt O95835); conditions: 10 uM; proteome HEL; peptide ALYATkTLR; labeling site Lys1
T3 construct: endogenous in cells; host or cells: HeLa and PC3 cell lysates

[4] = molecular target: T4, selected panels of kinases in HeLa and PC3 cell lysates (Homo sapiens, UniProt P20594); conditions: 10 uM; proteome PC3; peptide […]k[…]; labeling site Lys2
T4 construct: endogenous in cells; host or cells: HeLa and PC3 cell lysates

[5] = molecular target: T5, selected panels of kinases in HeLa and PC3 cell lysates (Homo sapiens, UniProt P24941); conditions: 10 uM, peptide DLk[…], labeling site Lys2
T5 construct: endogenous in cells; host or cells: HeLa and PC3 cell lysates

[6] = molecular target: T6, selected panels of kinases in HeLa and PC3 cell lysates (Homo sapiens, UniProt P41240); conditions: 10 uM, peptide VSDFGLTk[…], labeling site Activation Loop
T6 construct: endogenous in cells; host or cells: HeLa and PC3 cell lysates

[7] = molecular target: T7, selected panels of kinases in HeLa and PC3 cell lysates (Homo sapiens, UniProt Q14164); conditions: 10 uM; proteome HEL; peptide SGELVAVk[…]; labeling site Lys1
T7 construct: endogenous in cells; host or cells: HeLa and PC3 cell lysates

[8] = molecular target: T8, selected panels of kinases in HeLa and PC3 cell lysates (Homo sapiens, UniProt Q8TD19); conditions: 10 uM
T8 construct: endogenous in cells; host or cells: HeLa and PC3 cell lysates
T8 sequence (Q8TD19 1-979): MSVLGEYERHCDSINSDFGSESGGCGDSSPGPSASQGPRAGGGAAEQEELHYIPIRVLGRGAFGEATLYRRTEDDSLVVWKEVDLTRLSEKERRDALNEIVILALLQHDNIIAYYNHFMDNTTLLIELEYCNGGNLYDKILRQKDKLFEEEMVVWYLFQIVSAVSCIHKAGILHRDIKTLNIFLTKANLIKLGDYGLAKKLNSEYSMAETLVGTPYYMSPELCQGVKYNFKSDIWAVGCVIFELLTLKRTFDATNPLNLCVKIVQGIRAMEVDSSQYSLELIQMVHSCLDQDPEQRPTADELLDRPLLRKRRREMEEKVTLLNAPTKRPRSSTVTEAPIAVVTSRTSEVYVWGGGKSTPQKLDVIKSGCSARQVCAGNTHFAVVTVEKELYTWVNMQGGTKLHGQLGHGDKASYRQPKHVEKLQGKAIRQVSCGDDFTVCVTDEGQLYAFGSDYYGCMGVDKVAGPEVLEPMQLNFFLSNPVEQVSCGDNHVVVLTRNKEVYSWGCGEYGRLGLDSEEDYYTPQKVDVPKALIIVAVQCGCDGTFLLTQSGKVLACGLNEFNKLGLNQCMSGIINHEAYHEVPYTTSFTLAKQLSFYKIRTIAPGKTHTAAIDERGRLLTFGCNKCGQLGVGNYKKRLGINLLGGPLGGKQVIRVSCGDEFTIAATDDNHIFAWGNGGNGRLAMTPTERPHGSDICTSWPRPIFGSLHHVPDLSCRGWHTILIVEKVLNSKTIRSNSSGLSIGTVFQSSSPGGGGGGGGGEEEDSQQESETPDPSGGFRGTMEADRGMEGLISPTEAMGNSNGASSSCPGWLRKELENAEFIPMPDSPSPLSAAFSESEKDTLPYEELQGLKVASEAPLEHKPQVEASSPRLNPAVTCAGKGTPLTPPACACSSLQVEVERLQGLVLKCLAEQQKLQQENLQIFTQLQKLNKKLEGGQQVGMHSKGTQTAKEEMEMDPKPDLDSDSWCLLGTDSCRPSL

[9] = molecular target: T9, selected panels of kinases in HeLa and PC3 cell lysates (Homo sapiens, UniProt Q96Q15); conditions: 10 uM; SMG1; peptide […]kTKPK; proteome HEL; labeling site ATP
T9 construct: endogenous in cells; host or cells: HeLa and PC3 cell lysates

[10] = molecular target: T10, selected panels of kinases in HeLa and PC3 cell lysates (Homo sapiens, UniProt Q9UL54); conditions: 10 uM; TAO2; peptide DVk[…]; proteome PC3; labeling site Lys2
T10 construct: endogenous in cells; host or cells: HeLa and PC3 cell lysates

[11] = molecular target: T11, selected panels of kinases in HeLa and PC3 cell lysates (Homo sapiens, UniProt Q9Y2U5); conditions: 10 uM, proteome PC3, labeling site Lys1
T11 construct: endogenous in cells; host or cells: HeLa and PC3 cell lysates
T11 sequence (Q9Y2U5 1-619): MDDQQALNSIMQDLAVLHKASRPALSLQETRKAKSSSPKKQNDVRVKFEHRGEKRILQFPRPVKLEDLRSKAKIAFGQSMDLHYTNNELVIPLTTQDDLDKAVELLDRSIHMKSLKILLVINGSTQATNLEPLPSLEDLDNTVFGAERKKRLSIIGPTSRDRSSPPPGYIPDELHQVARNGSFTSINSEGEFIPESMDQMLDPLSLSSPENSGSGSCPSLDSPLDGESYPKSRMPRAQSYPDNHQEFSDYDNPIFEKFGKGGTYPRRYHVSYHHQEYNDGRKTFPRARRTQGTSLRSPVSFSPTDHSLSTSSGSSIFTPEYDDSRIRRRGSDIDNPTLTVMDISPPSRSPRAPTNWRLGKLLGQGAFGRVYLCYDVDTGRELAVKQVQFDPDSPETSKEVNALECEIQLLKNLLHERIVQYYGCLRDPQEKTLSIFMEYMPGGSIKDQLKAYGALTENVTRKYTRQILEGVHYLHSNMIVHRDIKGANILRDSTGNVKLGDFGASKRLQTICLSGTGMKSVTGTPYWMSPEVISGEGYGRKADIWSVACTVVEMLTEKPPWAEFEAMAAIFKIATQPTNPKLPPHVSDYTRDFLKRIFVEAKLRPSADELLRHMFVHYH

[12] = molecular target: T12, selected panels of kinases in HeLa and PC3 cell lysates (Homo sapiens, UniProt Q9Y6E0); conditions: 10 uM; proteome HEL; peptide DIk[…]; labeling site Lys2
T12 construct: endogenous in cells; host or cells: HeLa and PC3 cell lysates

[13] = proteome HEL, peptide DIkTLNIFLTK, labeling site Lys2
[14] = proteome HEL, peptide LGDYGLAkK, labeling site Activation Loop
[15] = proteome PC3, peptide DIkTLNIFLTK, labeling site Lys2
[16] = proteome PC3, peptide LGDYGLAkK, labeling site Activation Loop

T6 sequence (P41240 whole entry): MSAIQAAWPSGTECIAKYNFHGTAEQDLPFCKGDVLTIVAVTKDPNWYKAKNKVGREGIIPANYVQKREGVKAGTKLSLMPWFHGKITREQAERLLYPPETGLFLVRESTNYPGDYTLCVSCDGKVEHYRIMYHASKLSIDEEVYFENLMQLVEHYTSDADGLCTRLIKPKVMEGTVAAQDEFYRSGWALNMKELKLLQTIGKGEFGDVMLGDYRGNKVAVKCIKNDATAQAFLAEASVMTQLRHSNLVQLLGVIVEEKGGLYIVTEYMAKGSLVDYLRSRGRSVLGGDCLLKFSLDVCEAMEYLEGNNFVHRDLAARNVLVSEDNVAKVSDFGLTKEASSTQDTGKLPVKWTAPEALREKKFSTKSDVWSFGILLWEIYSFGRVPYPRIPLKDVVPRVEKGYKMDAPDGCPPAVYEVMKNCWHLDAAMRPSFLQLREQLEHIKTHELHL
T1 sequence (O00418 whole entry, the tested form may be a part): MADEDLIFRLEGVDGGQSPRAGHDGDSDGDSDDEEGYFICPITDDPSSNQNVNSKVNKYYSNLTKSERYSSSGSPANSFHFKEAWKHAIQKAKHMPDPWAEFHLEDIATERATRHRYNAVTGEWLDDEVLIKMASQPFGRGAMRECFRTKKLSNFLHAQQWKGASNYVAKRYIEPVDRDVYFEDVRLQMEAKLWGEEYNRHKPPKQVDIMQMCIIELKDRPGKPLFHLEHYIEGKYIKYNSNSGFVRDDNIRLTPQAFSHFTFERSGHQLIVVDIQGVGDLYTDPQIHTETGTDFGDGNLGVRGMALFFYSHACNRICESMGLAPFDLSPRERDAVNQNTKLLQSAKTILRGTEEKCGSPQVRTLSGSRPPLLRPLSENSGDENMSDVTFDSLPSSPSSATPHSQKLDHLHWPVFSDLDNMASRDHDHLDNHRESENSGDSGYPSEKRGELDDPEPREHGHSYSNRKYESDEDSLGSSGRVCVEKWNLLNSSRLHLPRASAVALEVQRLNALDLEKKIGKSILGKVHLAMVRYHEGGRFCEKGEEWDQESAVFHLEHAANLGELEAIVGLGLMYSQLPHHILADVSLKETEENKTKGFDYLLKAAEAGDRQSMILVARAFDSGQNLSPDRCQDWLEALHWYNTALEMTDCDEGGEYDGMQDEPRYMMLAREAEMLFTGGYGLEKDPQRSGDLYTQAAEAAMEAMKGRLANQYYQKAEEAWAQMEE
T7 sequence (Q14164 whole entry): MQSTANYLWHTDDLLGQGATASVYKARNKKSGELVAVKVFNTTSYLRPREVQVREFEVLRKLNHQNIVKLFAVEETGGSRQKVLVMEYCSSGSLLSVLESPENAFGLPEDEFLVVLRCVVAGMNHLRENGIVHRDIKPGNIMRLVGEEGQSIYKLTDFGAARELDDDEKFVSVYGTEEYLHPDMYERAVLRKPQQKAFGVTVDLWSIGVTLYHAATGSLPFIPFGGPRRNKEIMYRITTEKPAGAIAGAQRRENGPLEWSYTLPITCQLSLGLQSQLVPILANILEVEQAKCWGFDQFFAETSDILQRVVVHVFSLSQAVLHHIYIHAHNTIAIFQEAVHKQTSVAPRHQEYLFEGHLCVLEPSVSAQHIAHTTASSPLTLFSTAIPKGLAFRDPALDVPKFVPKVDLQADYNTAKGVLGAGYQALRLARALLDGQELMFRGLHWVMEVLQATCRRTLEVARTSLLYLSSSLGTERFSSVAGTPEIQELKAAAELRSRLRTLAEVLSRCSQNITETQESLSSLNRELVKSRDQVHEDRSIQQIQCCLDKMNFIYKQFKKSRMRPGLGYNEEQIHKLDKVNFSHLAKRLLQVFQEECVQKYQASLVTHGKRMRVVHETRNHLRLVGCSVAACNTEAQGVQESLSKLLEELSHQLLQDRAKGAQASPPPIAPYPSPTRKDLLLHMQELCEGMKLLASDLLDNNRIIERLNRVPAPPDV
T3 sequence (O95835 whole entry): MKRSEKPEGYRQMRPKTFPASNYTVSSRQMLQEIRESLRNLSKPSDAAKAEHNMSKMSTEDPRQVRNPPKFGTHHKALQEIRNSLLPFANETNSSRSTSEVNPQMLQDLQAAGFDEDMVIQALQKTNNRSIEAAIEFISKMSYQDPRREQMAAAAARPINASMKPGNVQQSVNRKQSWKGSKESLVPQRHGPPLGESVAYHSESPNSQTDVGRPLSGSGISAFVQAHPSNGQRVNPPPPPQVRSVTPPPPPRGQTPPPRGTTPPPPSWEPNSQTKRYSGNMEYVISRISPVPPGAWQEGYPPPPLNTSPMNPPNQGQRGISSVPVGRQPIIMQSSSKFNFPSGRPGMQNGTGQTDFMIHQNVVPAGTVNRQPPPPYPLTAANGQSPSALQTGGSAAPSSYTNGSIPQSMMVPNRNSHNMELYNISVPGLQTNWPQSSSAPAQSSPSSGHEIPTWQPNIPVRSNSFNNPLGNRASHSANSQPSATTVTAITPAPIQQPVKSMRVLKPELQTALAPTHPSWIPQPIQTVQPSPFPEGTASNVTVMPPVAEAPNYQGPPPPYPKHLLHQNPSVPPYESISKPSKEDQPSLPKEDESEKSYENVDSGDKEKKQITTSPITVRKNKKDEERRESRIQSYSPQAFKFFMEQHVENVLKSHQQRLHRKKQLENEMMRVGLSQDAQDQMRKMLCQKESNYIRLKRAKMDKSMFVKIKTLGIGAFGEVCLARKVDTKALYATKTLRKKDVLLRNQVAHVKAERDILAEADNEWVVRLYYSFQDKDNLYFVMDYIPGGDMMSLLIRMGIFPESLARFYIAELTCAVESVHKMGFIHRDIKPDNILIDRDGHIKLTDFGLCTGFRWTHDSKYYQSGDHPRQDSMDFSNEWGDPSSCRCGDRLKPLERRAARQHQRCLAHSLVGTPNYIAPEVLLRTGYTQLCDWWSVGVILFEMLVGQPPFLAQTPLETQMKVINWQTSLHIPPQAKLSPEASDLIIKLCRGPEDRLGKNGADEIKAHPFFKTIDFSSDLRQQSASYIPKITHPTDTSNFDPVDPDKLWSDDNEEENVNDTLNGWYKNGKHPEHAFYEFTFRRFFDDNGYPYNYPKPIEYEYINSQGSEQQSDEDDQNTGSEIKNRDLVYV
T4 sequence (P20594 23-1047): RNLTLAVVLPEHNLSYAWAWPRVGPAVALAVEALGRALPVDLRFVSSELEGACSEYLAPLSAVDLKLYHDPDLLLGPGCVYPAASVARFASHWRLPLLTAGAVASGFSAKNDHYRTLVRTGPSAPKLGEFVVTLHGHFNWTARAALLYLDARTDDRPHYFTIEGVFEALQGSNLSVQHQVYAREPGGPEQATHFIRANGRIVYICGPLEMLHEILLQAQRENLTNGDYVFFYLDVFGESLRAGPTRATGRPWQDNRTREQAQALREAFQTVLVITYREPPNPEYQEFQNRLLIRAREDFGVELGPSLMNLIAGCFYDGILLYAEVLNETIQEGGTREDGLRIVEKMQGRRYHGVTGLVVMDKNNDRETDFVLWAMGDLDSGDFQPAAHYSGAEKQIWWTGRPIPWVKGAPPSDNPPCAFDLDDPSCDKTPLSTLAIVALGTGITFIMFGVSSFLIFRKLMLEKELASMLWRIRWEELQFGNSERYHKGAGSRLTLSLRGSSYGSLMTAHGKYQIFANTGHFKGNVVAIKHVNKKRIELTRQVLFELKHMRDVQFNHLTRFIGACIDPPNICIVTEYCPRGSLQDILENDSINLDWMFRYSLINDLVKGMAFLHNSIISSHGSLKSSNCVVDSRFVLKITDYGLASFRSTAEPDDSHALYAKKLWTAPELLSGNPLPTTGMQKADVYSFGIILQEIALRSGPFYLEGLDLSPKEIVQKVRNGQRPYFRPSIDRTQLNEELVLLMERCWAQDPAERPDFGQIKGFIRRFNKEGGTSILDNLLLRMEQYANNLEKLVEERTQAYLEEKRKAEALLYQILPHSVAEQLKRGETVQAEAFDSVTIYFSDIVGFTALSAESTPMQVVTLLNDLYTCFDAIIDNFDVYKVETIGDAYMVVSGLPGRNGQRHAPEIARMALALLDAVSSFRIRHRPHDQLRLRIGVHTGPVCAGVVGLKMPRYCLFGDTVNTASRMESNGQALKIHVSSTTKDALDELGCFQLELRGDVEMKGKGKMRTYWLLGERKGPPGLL
T12 sequence (Q9Y6E0 whole entry): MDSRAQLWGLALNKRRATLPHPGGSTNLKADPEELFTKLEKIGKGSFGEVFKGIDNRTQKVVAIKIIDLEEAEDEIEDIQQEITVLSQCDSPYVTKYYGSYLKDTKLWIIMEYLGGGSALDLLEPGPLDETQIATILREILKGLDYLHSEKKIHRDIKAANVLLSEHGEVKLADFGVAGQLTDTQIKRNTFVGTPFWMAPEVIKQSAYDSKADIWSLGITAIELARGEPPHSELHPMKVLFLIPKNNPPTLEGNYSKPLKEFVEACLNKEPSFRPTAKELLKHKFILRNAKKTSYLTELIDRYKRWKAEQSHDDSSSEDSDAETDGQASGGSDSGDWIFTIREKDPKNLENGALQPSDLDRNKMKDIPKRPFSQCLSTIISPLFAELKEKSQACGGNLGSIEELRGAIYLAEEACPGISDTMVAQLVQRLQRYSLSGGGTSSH
T2 sequence (O14757 whole entry): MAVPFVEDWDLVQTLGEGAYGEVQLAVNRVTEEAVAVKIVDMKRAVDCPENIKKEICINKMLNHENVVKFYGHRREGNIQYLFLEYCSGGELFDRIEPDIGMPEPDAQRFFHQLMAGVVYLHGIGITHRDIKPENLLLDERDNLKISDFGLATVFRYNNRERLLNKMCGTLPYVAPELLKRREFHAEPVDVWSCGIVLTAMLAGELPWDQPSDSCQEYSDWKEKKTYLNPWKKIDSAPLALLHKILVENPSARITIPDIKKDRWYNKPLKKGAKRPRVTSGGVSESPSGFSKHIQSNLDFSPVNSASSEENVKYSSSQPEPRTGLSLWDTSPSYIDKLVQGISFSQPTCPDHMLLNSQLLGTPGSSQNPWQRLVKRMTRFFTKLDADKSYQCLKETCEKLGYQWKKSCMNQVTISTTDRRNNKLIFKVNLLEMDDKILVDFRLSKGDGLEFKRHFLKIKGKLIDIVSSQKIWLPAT

| SMILES | % Inhibiton, eEF2K ([1]; proteome HEL) [%] | % Inhibiton, eEF2K ([1]; proteome PC3) [%] | % Inhibiton, CHK1 [2] [%] | % Inhibiton, LATS1 [3] [%] | % Inhibiton, ANPb [4] [%] | % Inhibiton, CDK2 ([5]; proteome HEL) [%] | % Inhibiton, CDK2 ([5]; proteome PC3) [%] | % Inhibiton, CSK ([6]; proteome HEL) [%] | % Inhibiton, CSK ([6]; proteome PC3) [%] | % Inhibiton, IKKe [7] [%] | % Inhibiton, NEK9 [8, 13] [%] | % Inhibiton, NEK9 [8, 14] [%] | % Inhibiton, NEK9 [8, 15] [%] | % Inhibiton, NEK9 [8, 16] [%] | % Inhibition SMG1 [9] [%] | % Inhibition TAO2 [10] [%] | % Inhibiton, MAP3K2 ([11]; peptide ELAVk[…]) [%] | % Inhibiton, MAP3K2 ([11]; peptide […]k[…]) [%] | % Inhibiton, MST3 [12] [%] |
| --- | --- | --- | --- | --- | --- | --- | --- | --- | --- | --- | --- | --- | --- | --- | --- | --- | --- | --- | --- |
| CCOc1cc(C(=O)N2CCC(N3CCN(C)CC3)CC2)ccc1Nc1ncc2c(n1)N(C1CCCC1)c1ccccc1C(=O)N2C [Compound 26] | 1.2 | 1.9 | 13.8 | 6.8 | 24.3 | 7 | -6.7 | 14.3 | -6.9 | 8.6 | 7.6 | -3 | -4.7 | 6.4 | -4.8 | 7.2 | -11.2 | -12.3 | 9.7 |
| COc1cc(C(=O)N2CCC(N3CCN(C)CC3)CC2)ccc1Nc1ncc2c(n1)N(C1CCCC1)c1ccccc1C(=O)N2C [Compound 25, 11-cyclopentyl-2-((2-methoxy-4-(4-(4-methylpiperazin-1-yl)piperidine-1-carbonyl)phenyl)amino)-5-methyl-5H-benzo[e]pyrimido[5,4-b][1,4]diazepin-6(11H)-one] | 8.7 | -9.1 | -12.3 | 7.2 | -11.4 | 9.4 | 5.0 | 6.5 | -4.8 | -20.7 | 14.6 | 1.9 | 1.6 | 6.7 | -21.0 | 0.261 | 15.5 | 23.7 | 7.3 |
